Consider three compounds from patent publication US12151028B2, “Drug delivery systems comprising solid solutions of weakly basic drugs” (Adare Pharmaceuticals, Inc., priority 2006, dated 2024).

SMILES strings stand for the structures. In brackets after ≈: the same amount, converted by molar mass. Counter-ions that a name gives are not always drawn. Like-named read-outs stand apart in the source and are kept apart here.

The solubility is the concentration that dissolves in the medium under given conditions. A high value points to a readily soluble substance.

Data set [1] can be described thus: Turbidity measurements (transmittance of drug/polymer solutions in pH 6.0 buffer). Format: physicochemical. To be noted: buffer pH 6.0 containing Kollidon VA 64, Methocel E5, PEG 6000, cyclodextrin or Kollidon 14 PF; drug:polymer 1:2. The protocol:
A concentrated solution (3 mL) of lercanidipine hydrochloride in acetone (0.5 mg/ml) was added to 200 mL of a buffer solution (pH 6.0) containing Kollidon VA 64, Methocel E5 (hypromellose), polyethylene glycol (PEG 6000), cyclodextrin or Kollidon 14 PF (polyvinyl pyrrolidone) at the ratio of 1:2 by weight with respect to the polymer.

The nature of data set [2]: Intrinsic dissolution rate measurements. To be noted: crystalline polymorphs (Polymorph I, Polymorph II). It counts as physicochemical. The protocol: Intrinsic dissolution rates were determined for two different polymorphs of lercanidipine hydrochloride as well as amorphous materials (e.g., amorphous drug and 1:2 solid solutions of lercanidipine hydrochloride with Methocel E5 and Kollidon VA 64).

Consider `Cc1nccn1CC1CCc2c(c3ccccc3n2C)C1=O` (centres unmarked) [Ondansetron Hydrochloride, ondansetron hydrochloride], for which the “Solubility of Ondansetron Hydrochloride in Fumaric Acid” value is, setting by setting: (fumaric acid 0.25 mg/mL, start pH 2.79, end pH 2.75) 26200 µg/mL; (pH 2.13) 26900 µg/mL; (pH 3.49) “about 26 mg/mL”.
`O=C1CN=C(c2ccccc2Cl)c2cc([N+](=O)[O-])ccc2N1` [Clonazepam, clonazepam]: the solubility in “physchem” (pH 2.84, aqueous buffer) is 29 µg/mL (≈ 91.9 µM); in “physchem” (pH 2.92, aqueous buffer), 23 µg/mL (≈ 72.9 µM); in the data set “physchem” (pH 3, aqueous buffer), 22 µg/mL (≈ 69.7 µM); in “physchem” (pH 3.32, aqueous buffer) it was 21 µg/mL (≈ 66.5 µM); in the data set “physchem” (pH 4.21, aqueous buffer) it was 18 µg/mL (≈ 57 µM); in the data set “physchem” (pH 6.39, aqueous buffer), 18 µg/mL (≈ 57 µM).
Turning to `COC(=O)C1=C(C)NC(C)=C(C(=O)OC(C)(C)CN(C)CCC(c2ccccc2)c2ccccc2)C1c1cccc([N+](=O)[O-])c1` (centres unmarked) [lercanidipine hydrochloride], in data set [1], the “Stability of drug solution against crystallization (turbidity)” value was “improved stability”. In addition, the “Intrinsic dissolution rate and extent of dissolution” value in data set [2] is recorded as “poor dissolution rates”.
